Laboratory results published in ChEMBL document CHEMBL5325470, “Design, synthesis and mechanism studies of dual EZH2/BRD4 inhibitors for cancer therapy” (Bioorg Med Chem, 2023).
Activity calls are given as the source filed them. No cut-off for these calls is given here.

What was measured:
A549 [1] = assay: Antiproliferative activity against human A549 cells incubated for 72 hrs by MTT assay; type: functional, cell-based; details: A549, 72 h
BT-549 [2] = assay: Antiproliferative activity against human BT-549 cells incubated for 72 hrs by MTT assay; type: functional, cell-based; details: BT-549, 72 h
MDA-MB-231 [3] = assay: Antiproliferative activity against human MDA-MB-231 cells incubated for 72 hrs by MTT assay; type: functional, cell-based; details: MDA-MB-231, 72 h
HCT-116 [4] = assay: Antiproliferative activity against human HCT-116 cells incubated for 72 hrs by MTT assay; type: functional, cell-based; details: HCT-116, 72 h
[5] = target: Bromodomain-containing protein 4 (Homo sapiens, UniProt O60885); assay: Inhibition of BRD4 BD1 (unknown origin) incubated for 15 mins by TR-FRET method
[6] = Binding affinity to recombinant PRC2 complex (unknown origin) incubated for 3 hrs in presence of SAM; parameters: species or system Homo sapiens
HCT-116 [7] = assay: Synergistic antiproliferative activity against human HCT-116 cells at JQ1 and compound 1:1 ratio incubated for 72 hrs by MTT assay; type: functional, cell-based; details: HCT-116, 72 h
MDA-MB-231 [8] = assay: Synergistic antiproliferative activity against human MDA-MB-231 cells at JQ1 and compound 1:1 ratio incubated for 72 hrs by MTT assay; type: functional, cell-based; details: MDA-MB-231, 72 h
BT-549 [9] = assay: Synergistic antiproliferative activity against human BT-549 cells at JQ1 and compound 1:1 ratio incubated for 72 hrs by MTT assay; type: functional, cell-based; details: BT-549, 72 h
A549 [10] = assay: Synergistic antiproliferative activity against human A549 cells at JQ1 and compound 1:1 ratio incubated for 72 hrs by MTT assay; type: functional, cell-based; details: A549, 72 h
[11] = target: T1, Histone-lysine N-methyltransferase EZH2 (Homo sapiens, UniProt Q15910); assay: Inhibition of EZH2 in human MDA-MB-231 cells assessed as decrease in H3K27ac level at 2 to 8 uM incubated for 48 hrs by Western blotting analysis; type: cell-based; details: dose 2-8 µM
T1 sequence (Q15910 whole entry, looked up): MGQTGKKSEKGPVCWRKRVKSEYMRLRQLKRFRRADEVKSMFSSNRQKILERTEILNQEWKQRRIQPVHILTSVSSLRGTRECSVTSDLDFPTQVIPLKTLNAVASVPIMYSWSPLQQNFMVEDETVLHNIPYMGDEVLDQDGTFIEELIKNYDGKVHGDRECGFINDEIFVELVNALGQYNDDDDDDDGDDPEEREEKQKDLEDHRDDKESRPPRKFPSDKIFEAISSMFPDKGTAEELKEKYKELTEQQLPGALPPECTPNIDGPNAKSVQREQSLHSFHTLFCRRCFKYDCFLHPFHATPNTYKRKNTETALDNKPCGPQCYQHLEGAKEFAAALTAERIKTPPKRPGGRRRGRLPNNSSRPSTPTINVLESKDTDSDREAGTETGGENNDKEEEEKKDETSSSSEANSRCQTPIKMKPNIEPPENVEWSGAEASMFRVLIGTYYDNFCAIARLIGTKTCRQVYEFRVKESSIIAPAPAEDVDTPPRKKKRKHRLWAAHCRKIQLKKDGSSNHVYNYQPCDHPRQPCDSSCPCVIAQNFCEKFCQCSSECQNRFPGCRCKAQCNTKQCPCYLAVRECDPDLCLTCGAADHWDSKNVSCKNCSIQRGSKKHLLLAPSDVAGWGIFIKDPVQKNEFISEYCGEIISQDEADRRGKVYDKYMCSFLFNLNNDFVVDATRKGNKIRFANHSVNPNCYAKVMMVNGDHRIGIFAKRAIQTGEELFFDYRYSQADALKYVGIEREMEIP

[12] = target: T1, Histone-lysine N-methyltransferase EZH2; assay: Inhibition of EZH2 in human HCT-116 cells assessed as decrease in H3K27ac level at 2 to 8 uM incubated for 48 hrs by Western blotting analysis; type: cell-based; details: dose 2-8 µM
[13] = target: T1, Histone-lysine N-methyltransferase EZH2; assay: Inhibition of EZH2 in human A549 cells assessed as decrease in H3K27ac level at 2 to 8 uM incubated for 48 hrs by Western blotting analysis; type: cell-based; details: dose 2-8 µM

| SMILES | IC50 (A549 [1]) | IC50 (BT-549 [2]) | IC50 (MDA-MB-231 [3]) | IC50 (HCT-116 [4]) | IC50 [5] | Kd [6] | IC50 (HCT-116 [7]) | IC50 (MDA-MB-231 [8]) | IC50 (BT-549 [9]) | IC50 (A549 [10]) | inhibition [11] | inhibition [12] | inhibition [13] |
| --- | --- | --- | --- | --- | --- | --- | --- | --- | --- | --- | --- | --- | --- |
| Cc1cc(C)c(CNC(=O)c2cc(NC3CCN(C(=O)C[C@@H]4N=C(c5ccc(Cl)cc5)c5c(sc(C)c5C)-n5c(C)nnc54)CC3)cc3c2cnn3C(C)C)c(=O)[nH]1 | > 20 µM | 3.91 µM | 8.09 µM | 4.28 µM |  |  |  |  |  |  |  |  |  |
| Cc1sc2c(c1C)C(c1ccc(Cl)cc1)=N[C@@H](CC(=O)OC(C)(C)C)c1nnc(C)n1-2 | 18.3 µM | 3.89 µM | 6.17 µM | 3.07 µM |  |  |  |  |  |  |  |  |  |
| CCCc1cc(C)[nH]c(=O)c1CNC(=O)c1cc(-c2ccc(N3CCN(C(=O)C[C@@H]4N=C(c5ccc(Cl)cc5)c5c(sc(C)c5C)-n5c(C)nnc54)CC3)nc2)cc2c1cnn2C(C)C | > 20 µM | > 20 µM | > 20 µM | > 20 µM |  |  |  |  |  |  |  |  |  |
| Cc1cc(C)c(CNC(=O)c2cc(NCCCNC(=O)C[C@@H]3N=C(c4ccc(Cl)cc4)c4c(sc(C)c4C)-n4c(C)nnc43)cc3c2cnn3C(C)C)c(=O)[nH]1 | > 20 µM | 11.5 µM | 15.4 µM | > 20 µM | 0.206 µM |  |  |  |  |  |  |  |  |
| Cc1cc(C)c(CNC(=O)c2cc(NCCCCCCNC(=O)C[C@@H]3N=C(c4ccc(Cl)cc4)c4c(sc(C)c4C)-n4c(C)nnc43)cc3c2cnn3C(C)C)c(=O)[nH]1 | 9.2 µM | 4.99 µM | 3.23 µM | 1.9 µM | 0.138 µM | 0.19 µM |  |  |  |  |  |  |  |
| CCn1ncc2c(C(=O)NCc3c(C)cc(C)[nH]c3=O)cc(-c3ccc(N4CCN(C(=O)C[C@@H]5N=C(c6ccc(Cl)cc6)c6c(sc(C)c6C)-n6c(C)nnc65)CC4)nc3)cc21 | > 20 µM | 3.51 µM | > 20 µM | 6.68 µM |  |  |  |  |  |  |  |  |  |
| Cc1cc(C)c(CNC(=O)c2cc(-c3ccc(N4CCN(C(=O)C[C@@H]5N=C(c6ccc(Cl)cc6)c6c(sc(C)c6C)-n6c(C)nnc65)CC4)nc3)cc3c2cnn3C(C)C)c(=O)[nH]1 | > 20 µM | 3.4 µM | > 20 µM | 2.3 µM |  |  |  |  |  |  |  |  |  |
| Cc1cc(C)c(CNC(=O)c2cc(NCCCCNC(=O)C[C@@H]3N=C(c4ccc(Cl)cc4)c4c(sc(C)c4C)-n4c(C)nnc43)cc3c2cnn3C(C)C)c(=O)[nH]1 | > 20 µM | 9.57 µM | 13.5 µM | 10.2 µM | 0.216 µM |  |  |  |  |  |  |  |  |
| Cc1cc(C)c(CNC(=O)c2cc(-c3ccc(NC(=O)CCCCNC(=O)C[C@@H]4N=C(c5ccc(Cl)cc5)c5c(sc(C)c5C)-n5c(C)nnc54)cc3)cc3c2cnn3C(C)C)c(=O)[nH]1 | > 20 µM | 10.4 µM | 2.21 µM | 6.27 µM | 0.055 µM | 0.682 µM |  |  |  |  |  |  |  |
| Cc1cc(C)c(CNC(=O)c2cc(-c3ccc(N4CCN(C(=O)C[C@@H]5N=C(c6ccc(Cl)cc6)c6c(sc(C)c6C)-n6c(C)nnc65)CC4)nc3)cc3c2cnn3C)c(=O)[nH]1 | > 20 µM | 5.13 µM | 11.8 µM | > 20 µM |  |  |  |  |  |  |  |  |  |
| Cc1cc(C)c(CNC(=O)c2cc(-c3ccc(N4CCN(C(C)C)CC4)nc3)cc3c2cnn3C(C)C)c(=O)[nH]1 | 16.1 µM | 15.1 µM | 11.7 µM | 16.9 µM |  |  | 0.92 µM | 1.1 µM | 4.73 µM | 7.48 µM |  |  |  |
| Cc1cc(C)c(CNC(=O)c2cc(-c3ccc(NC(=O)CCNC(=O)C[C@@H]4N=C(c5ccc(Cl)cc5)c5c(sc(C)c5C)-n5c(C)nnc54)cc3)cc3c2cnn3C(C)C)c(=O)[nH]1 | > 20 µM | > 20 µM | 6.16 µM | > 20 µM | 0.124 µM | 0.464 µM |  |  |  |  |  |  |  |
| Cc1cc(C)c(CNC(=O)c2cc(N3CCC4(CCN(C(=O)C[C@@H]5N=C(c6ccc(Cl)cc6)c6c(sc(C)c6C)-n6c(C)nnc65)C4)CC3)cc3c2cnn3C(C)C)c(=O)[nH]1 | 17.3 µM | 3.64 µM | 2.87 µM | 2.23 µM |  |  |  |  |  |  |  |  |  |
| Cc1cc(C)c(CNC(=O)c2cc(-c3ccc(NC(=O)CCCNC(=O)C[C@@H]4N=C(c5ccc(Cl)cc5)c5c(sc(C)c5C)-n5c(C)nnc54)cc3)cc3c2cnn3C(C)C)c(=O)[nH]1 | > 20 µM | > 20 µM | 7.54 µM | > 20 µM | 0.137 µM | 0.376 µM |  |  |  |  |  |  |  |
| Cc1cc(C)c(CNC(=O)c2cc(-c3ccc(NC(=O)C[C@@H]4N=C(c5ccc(Cl)cc5)c5c(sc(C)c5C)-n5c(C)nnc54)cc3)cc3c2cnn3C(C)C)c(=O)[nH]1 | > 20 µM | > 20 µM | > 20 µM | > 20 µM | > 20 µM |  |  |  |  |  |  |  |  |
| Cc1cc(C)c(CNC(=O)c2cc(-c3ccc(CNC(=O)C[C@@H]4N=C(c5ccc(Cl)cc5)c5c(sc(C)c5C)-n5c(C)nnc54)cc3)cc3c2cnn3C(C)C)c(=O)[nH]1 | > 20 µM | 12.2 µM | 3.14 µM | 11.5 µM | 0.259 µM |  |  |  |  |  |  |  |  |
| Cc1cc(C)c(CNC(=O)c2cc(NCC3CCN(C(=O)C[C@@H]4N=C(c5ccc(Cl)cc5)c5c(sc(C)c5C)-n5c(C)nnc54)CC3)cc3c2cnn3C(C)C)c(=O)[nH]1 | 4.58 µM | 2.12 µM | 3.11 µM | 2.18 µM |  |  |  |  |  |  |  |  |  |
| Cc1cc(C)c(CNC(=O)c2cc(-c3ccc(N4CCN(C(=O)C[C@@H]5N=C(c6ccc(Cl)cc6)c6c(sc(C)c6C)-n6c(C)nnc65)CC4)cc3)cc3c2cnn3C(C)C)c(=O)[nH]1 | > 20 µM | > 20 µM | > 20 µM | 17.8 µM |  |  |  |  |  |  |  |  |  |
| Cc1cc(C)c(CNC(=O)c2cc(N3CCN(C(=O)C[C@@H]4N=C(c5ccc(Cl)cc5)c5c(sc(C)c5C)-n5c(C)nnc54)CC3)cc3c2cnn3C(C)C)c(=O)[nH]1 | > 20 µM | 3.87 µM | 10.9 µM | > 20 µM |  |  |  |  |  |  |  |  |  |
| CC[C@@H](C)n1cc(C)c2c(C(=O)NCc3c(C)cc(C)[nH]c3=O)cc(-c3ccc(N4CCNCC4)nc3)cc21 | 18.6 µM | 9.23 µM | 11.7 µM | 12.9 µM |  | 0.0891 µM | 1.76 µM | 2.6 µM | 2.05 µM | 4.34 µM | inactive | inactive | inactive |
| Cc1cc(C)c(CNC(=O)c2cc(-c3ccc(NC(=O)CNC(=O)C[C@@H]4N=C(c5ccc(Cl)cc5)c5c(sc(C)c5C)-n5c(C)nnc54)cc3)cc3c2cnn3C(C)C)c(=O)[nH]1 | > 20 µM | 10.8 µM | 1.24 µM | 2.9 µM | 0.138 µM |  |  |  |  |  |  |  |  |
| CCC(C)n1ncc2c(C(=O)NCc3c(C)cc(C)[nH]c3=O)cc(-c3ccc(N4CCN(C(=O)C[C@@H]5N=C(c6ccc(Cl)cc6)c6c(sc(C)c6C)-n6c(C)nnc65)CC4)nc3)cc21 (some centres undefined) | > 20 µM | > 20 µM | > 20 µM | > 20 µM |  |  |  |  |  |  |  |  |  |
| Cc1cc(C)c(CNC(=O)c2cc(N3CCC(CNC(=O)C[C@@H]4N=C(c5ccc(Cl)cc5)c5c(sc(C)c5C)-n5c(C)nnc54)CC3)cc3c2cnn3C(C)C)c(=O)[nH]1 | 8.93 µM | 3.2 µM | 2.07 µM | 5.61 µM | 0.353 µM | 0.133 µM |  |  |  |  |  |  |  |
